According to US9777005B2 (Takeda Pharmaceutical Company Limited, priority 2012, dated 2017):

Target: T1, human M1 receptor (hCHRM1) (Homo sapiens, UniProt P11229)
T1 construct: expressed in transfected cells; host or cells: CHO-K1
T1 sequence (P11229 1-460): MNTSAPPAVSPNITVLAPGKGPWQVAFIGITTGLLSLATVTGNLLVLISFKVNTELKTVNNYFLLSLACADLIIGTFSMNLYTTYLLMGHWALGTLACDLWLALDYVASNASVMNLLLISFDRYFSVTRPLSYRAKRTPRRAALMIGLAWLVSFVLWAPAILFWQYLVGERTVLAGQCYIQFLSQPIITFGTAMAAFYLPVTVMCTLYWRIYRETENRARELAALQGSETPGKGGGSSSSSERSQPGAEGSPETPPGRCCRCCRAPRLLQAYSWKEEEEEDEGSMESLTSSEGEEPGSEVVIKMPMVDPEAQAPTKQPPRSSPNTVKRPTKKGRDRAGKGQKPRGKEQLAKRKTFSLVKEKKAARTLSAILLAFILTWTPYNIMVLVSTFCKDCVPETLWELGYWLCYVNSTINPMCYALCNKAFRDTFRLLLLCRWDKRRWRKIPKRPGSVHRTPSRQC
Experiment: Measurement of M1 receptor positive allosteric modulator (M1PAM) activity, calcium fluorescence (FLIPRtetra) in CHO-K1 cells in the presence of acetylcholine at EC20
Assay type: cell-based
Details: in the presence of acetylcholine at EC20 (final 0.6 nM), CHO-K1 cells expressing hCHRM1; for EC50: inflection point of M1PAM activity, read-out: IP value; for activity (%) at 10 μM: test compound 10 μM
Method: Measurement of M1 Receptor Positive Allosteric Modulator (M1PAM) Activity
The activity of a test compound in the presence of acetylcholine at EC20 concentration (final concentration 0.6 nM), which affords an action corresponding to 20% of the maximum activity, was measured as PAM activity. The method is as follows. CHO-K1 cells forcibly expressing a human M1 receptor (hCHRM1) were plated on a 384-well black clear bottom plate (BD Falcon) at 5,000 cells/well, and cultured in an incubator at 37° C., 5% CO2 for 1 day. The medium in the cell plate was removed, and assay buffer A (Recording medium (DOJINDO LABORATORIES), 0.1% BSA (Wako Pure Chemical Industries, Ltd.), 2.5 μg/mL Fluo-4 AM (DOJINDO LABORATORIES), 0.08% Pluronic F127 (DOJINDO LABORATORIES), 1.25 mM probenecid (DOJINDO LABORATORIES)) containing a calcium indicator was added at 30 μL/well. The cells were left standing in the incubator at 37° C., 5% CO2 for 30 min, and further left standing at room temperature for 30 min. A test compound prepared by diluting with assay buffer B (HBSS (Invitrogen), 20 mM HEPES (Invitrogen), 0.1% BSA) containing 2.4 nM acetylcholine was added at 10 μL/well, and the fluorescence was measured by FLIPRtetra (Molecular Devices) for 1 min every 1 second. With the definition that the amount of change in the fluorescence on addition of acetylcholine (final concentration 1 μM) is 100% and that on addition of DMSO instead of a test compound is 0%, the activity (%) of the test compound and the inflection point in the concentration-dependent curve of the test compound were calculated as IP values.

Structure (SMILES) | EC50 [nM] | activity (%) at 10 μM [%]
Cc1nn(C)cc1-c1ccc(CN2Cc3ccnc(Oc4ccc(C(C)(C)O)cc4F)c3C2=O)cc1 [Example 412, 2-(4-(1,3-dimethyl-1H-pyrazol-4-yl)benzyl)-4-(2-fluoro-4-(2-hydroxypropan-2-yl)phenoxy)-1,2-dihydro-3H-pyrrolo[3,4-c]pyridin-3-one] | 8 | 101
Cn1cc(-c2ccc(CN3Cc4cccc(O[C@H]5CCCC[C@@H]5O)c4C3=O)cc2)cn1 (relative stereo) [Example 1, 7-((trans-2-hydroxycyclohexyl)oxy)-2-(4-(1-methyl-1H-pyrazol-4-yl)benzyl)isoindolin-1-one] | 7 | 102
Cc1nn(C)cc1-c1ccc(CN2Cc3cccc(O[C@H]4CCC[C@@H]4O)c3C2=O)cc1 (relative stereo) [Example 226, 2-(4-(1,3-dimethyl-1H-pyrazol-4-yl)benzyl)-7-((trans-2-hydroxycyclopentyl)oxy)isoindolin-1-one] | 30 | 98
Cc1nn(C)cc1-c1ccc(CN2Cc3ccnc(Oc4c(F)cccc4Cl)c3C2=O)cc1 [Example 281, 4-(2-chloro-6-fluorophenoxy)-2-(4-(1,3-dimethyl-1H-pyrazol-4-yl)benzyl)-1,2-dihydro-3H-pyrrolo[3,4-c]pyridin-3-one] | 65 | 108
Cc1nn(C)cc1-c1ccc(CN2Cc3ncnc(OC4CCC4)c3C2=O)cc1 [Example 323, 4-(cyclobutyloxy)-6-(4-(1,3-dimethyl-1H-pyrazol-4-yl)benzyl)-6,7-dihydro-5H-pyrrolo[3,4-d]pyrimidin-5-one] | 21 | 89
CCn1cc(-c2ccc(CN3Cc4ccnc(OC5CCC5)c4C3=O)cc2)cn1 [Example 404, 4-(cyclobutyloxy)-2-(4-(1-ethyl-1H-pyrazol-4-yl)benzyl)-1,2-dihydro-3H-pyrrolo[3,4-c]pyridin-3-one] | 53 | 87
O=C1c2c(ccnc2OCC2CCCO2)CN1Cc1ccc(-n2cccn2)cc1F (centres unmarked) [Example 86, 2-(2-fluoro-4-(1H-pyrazol-1-yl)benzyl)-4-((tetrahydrofuran-2-yl)methoxy)-1,2-dihydro-3H-pyrrolo[3,4-c]pyridin-3-one] | 17 | 104
COc1cccc(F)c1Oc1nccc2c1C(=O)N(Cc1ccc(-c3cn(C)nc3C)cc1)C2 [Example 357, 2-(4-(1,3-dimethyl-1H-pyrazol-4-yl)benzyl)-4-(2-fluoro-6-methoxyphenoxy)-1,2-dihydro-3H-pyrrolo[3,4-c]pyridin-3-one] | 51 | 90
Cn1cc(-c2ccc(CN3Cc4ccnc(OCC5CC5)c4C3=O)cc2)nn1 [Example 337, 4-(cyclopropylmethoxy)-2-(4-(1-methyl-1H-1,2,3-triazol-4-yl)benzyl)-1,2-dihydro-3H-pyrrolo[3,4-c]pyridin-3-one] | 49 | 92
CC(Oc1nccc2c1C(=O)N(Cc1ccc(-c3cn(C)nn3)cc1F)C2)c1ccccc1F (centres unmarked) [Example 334, 2-(2-fluoro-4-(1-methyl-1H-1,2,3-triazol-4-yl)benzyl)-4-(1-(2-fluorophenyl)ethoxy)-1,2-dihydro-3H-pyrrolo[3,4-c]pyridin-3-one] | 65 | 99
O=C1c2c(cccc2O[C@@H]2CCOC[C@H]2O)CN1Cc1c(F)cc(F)cc1F (single isomer, unassigned) [Example 318, 1,5-anhydro-2-deoxy-3-O-(3-oxo-2-(2,4,6-trifluorobenzyl)-2,3-dihydro-1H-isoindol-4-yl)-threo-pentitol] | 26 | 99
Cn1cc(-c2ccc(CN3Cc4cccc(OCCN5CCCC5)c4C3=O)cc2)cn1 [Example 8, 2-(4-(1-methyl-1H-pyrazol-4-yl)benzyl)-7-(2-(pyrrolidin-1-yl)ethoxy)isoindolin-1-one] | 33 | 99
Cn1ccc(-c2ccc(CN3Cc4ncnc(Oc5ccc(C(F)F)cc5F)c4C3=O)cc2)n1 [Example 310, 4-(4-(difluoromethyl)-2-fluorophenoxy)-6-(4-(1-methyl-1H-pyrazol-3-yl)benzyl)-6,7-dihydro-5H-pyrrolo[3,4-d]pyrimidin-5-one] | 30 | 105
CCc1ccc(Oc2nccc3c2C(=O)N(Cc2ccc(C(N)=O)c(F)c2)C3)c(F)c1 [Example 445, 4-((4-(4-ethyl-2-fluorophenoxy)-3-oxo-1,3-dihydro-2H-pyrrolo[3,4-c]pyridin-2-yl)methyl)-2-fluorobenzamide] | 28 | 100
O=C1c2c(ccnc2OCC2CCCO2)CN1Cc1ccc(-c2cc[nH]n2)cc1 (centres unmarked) [Example 333, 2-(4-(1H-pyrazol-3-yl)benzyl)-4-((tetrahydrofuran-2-yl)methoxy)-1,2-dihydro-3H-pyrrolo[3,4-c]pyridin-3-one] | 21 | 114
Cn1cc(-c2ccc(CN3Cc4cccc(Oc5c(F)cc([N+](=O)[O-])cc5Cl)c4C3=O)cc2)cn1 [Example 10, 7-(2-chloro-6-fluoro-4-nitrophenoxy)-2-(4-(1-methyl-1H-pyrazol-4-yl)benzyl)isoindolin-1-one] | 54 | 103
Cn1cc(-c2ccc(CN3Cc4cccc(OCC5CCCO5)c4C3=O)cc2)cn1 (centres unmarked) [Example 5, 2-(4-(1-methyl-1H-pyrazol-4-yl)benzyl)-7-((tetrahydrofuran-2-yl)methoxy)isoindolin-1-one] | 20 | 102
Cn1cc(-c2ccc(CN3Cc4cccc(OCC5CCCO5)c4C3=O)c(F)c2)nn1 (centres unmarked) [Example 330, 2-(2-fluoro-4-(1-methyl-1H-1,2,3-triazol-4-yl)benzyl)-7-((tetrahydrofuran-2-yl)methoxy)isoindolin-1-one] | 30 | 104
Cc1cc(F)cc(F)c1Oc1nccc2c1C(=O)N(Cc1ccc(-c3ccn(C)n3)cc1)C2 [Example 359, 4-(2,4-difluoro-6-methylphenoxy)-2-(4-(1-methyl-1H-pyrazol-3-yl)benzyl)-1,2-dihydro-3H-pyrrolo[3,4-c]pyridin-3-one] | 93 | 96
Cn1cc(-c2ccc(CN3Cc4cccc(O[C@H]5CCCC[C@@H]5O)c4C3=O)s2)cn1 (relative stereo) [Example 28, 7-((trans-2-hydroxycyclohexyl)oxy)-2-((5-(1-methyl-1H-pyrazol-4-yl)-2-thienyl)methyl)isoindolin-1-one] | 7 | 120
Cn1cc(-c2ccc(CN3Cc4ccnc(Oc5c(F)cccc5Cl)c4C3=O)cc2)nn1 [Example 231, 4-(2-chloro-6-fluorophenoxy)-2-(4-(1-methyl-1H-1,2,3-triazol-4-yl)benzyl)-1,2-dihydro-3H-pyrrolo[3,4-c]pyridin-3-one] | 24 | 106
Cc1nn(C)cc1-c1ccc(CN2Cc3ccnc(OCCn4cccn4)c3C2=O)cc1 [Example 225, 2-(4-(1,3-dimethyl-1H-pyrazol-4-yl)benzyl)-4-(2-(1H-pyrazol-1-yl)ethoxy)-1,2-dihydro-3H-pyrrolo[3,4-c]pyridin-3-one] | 51 | 104
